Experimental data reported in ChEMBL document CHEMBL1121668, “(Phenylthio)phenylamine derivatives as potential antiinflammatory compounds” (J Med Chem, 1981).

Legend:
[1] = Lethal dose is determined in mice (iv); format: toxicity, organism-based; settings: mouse, in vivo
[2] = system: Rattus norvegicus; test: Compound is evaluated for antiinflammatory activity using carrageenan-induced paw edema method in rat at a dose 5 mg/kg ip after 3h; format: functional; settings: route intraperitoneal
[3] = system: Rattus norvegicus; test: Compound is evaluated for antiinflammatory activity using carrageenan-induced paw edema method in rat at a dose 5 mg/kg ip after 2 hr; format: functional; settings: route intraperitoneal
[4] = system: Rattus norvegicus; test: Compound is evaluated for antiinflammatory activity using carrageenan-induced paw edema method in rat at a dose 5 mg/kg ip after 1 hr; format: functional; settings: route intraperitoneal
[5] = Lethal dose is determined in mice (po); format: toxicity, organism-based; settings: mouse, in vivo
[6] = system: Rattus norvegicus; test: Compound is evaluated for antiinflammatory activity using carrageenan-induced paw edema method in rat at a dose 500 mg/kg ip after 1 hr; format: functional; settings: route intraperitoneal
[7] = system: Rattus norvegicus; test: Compound is evaluated for antiinflammatory activity using carrageenan-induced paw edema method in rat at a dose 500 mg/kg ip after 2 hr; format: functional; settings: route intraperitoneal
[8] = system: Rattus norvegicus; test: Compound is evaluated for antiinflammatory activity using carrageenan-induced paw edema method in rat at a dose 500 mg/kg ip after 3h; format: functional; settings: route intraperitoneal
[9] = system: Rattus norvegicus; test: Compound is evaluated for antiinflammatory activity using carrageenan-induced paw edema method in rat at a dose 200 mg/kg po after 3h; format: functional
[10] = system: Rattus norvegicus; test: Compound is evaluated for antiinflammatory activity using carrageenan-induced paw edema method in rat at a dose 200 mg/kg po after 2 hr; format: functional
[11] = system: Rattus norvegicus; test: Compound is evaluated for antiinflammatory activity using carrageenan-induced paw edema method in rat at a dose 200 mg/kg po after 1 hr; format: functional
[12] = system: Rattus norvegicus; test: Compound is evaluated for antiinflammatory activity using carrageenan-induced paw edema method in rat at a dose 25 mg/kg ip after 3h; format: functional; settings: route intraperitoneal
[13] = system: Rattus norvegicus; test: Compound is evaluated for antiinflammatory activity using carrageenan-induced paw edema method in rat at a dose 25 mg/kg ip after 2 hr; format: functional; settings: route intraperitoneal
[14] = system: Rattus norvegicus; test: Compound is evaluated for antiinflammatory activity using carrageenan-induced paw edema method in rat at a dose 25 mg/kg ip after 1 hr; format: functional; settings: route intraperitoneal
[15] = system: Rattus norvegicus; test: Compound is evaluated for antiinflammatory activity using carrageenan-induced paw edema method in rat at a dose 30 mg/kg ip after 2 hr; format: functional; settings: route intraperitoneal
[16] = system: Rattus norvegicus; test: Compound is evaluated for antiinflammatory activity using carrageenan-induced paw edema method in rat at a dose 30 mg/kg ip after 3h; format: functional; settings: route intraperitoneal
[17] = system: Rattus norvegicus; test: Compound is evaluated for antiinflammatory activity using carrageenan-induced paw edema method in rat at a dose 30 mg/kg ip after 1 hr; format: functional; settings: route intraperitoneal
[18] = system: Rattus norvegicus; test: Compound is evaluated for antiinflammatory activity using carrageenan-induced paw edema method in rat at a dose 10 mg/kg ip after 1 hr; format: functional; settings: route intraperitoneal
[19] = system: Rattus norvegicus; test: Compound is evaluated for antiinflammatory activity using carrageenan-induced paw edema method in rat at a dose 10 mg/kg ip after 3h; format: functional; settings: route intraperitoneal
[20] = system: Rattus norvegicus; test: Compound is evaluated for antiinflammatory activity using carrageenan-induced paw edema method in rat at a dose 10 mg/kg ip after 2 hr; format: functional; settings: route intraperitoneal

Molecule `CCN(CC)CC(=O)N(C)c1ccc(Sc2ccccc2)cc1` has an LD50 [1] of 30 mg/kg, a Reduction [2] of 52% and a Reduction [3] of 50%. It also gave a Reduction [4] of 53% and an LD50 [5] of 140 mg/kg.
With `CN(C(=O)C1CC1)c1ccc(Sc2ccccc2)cc1` the Reduction [6] was 57%, the LD50 [1] was > 1000 mg/kg and the Reduction [7] was 48%. It also gave a Reduction [8] of 37%.
For `CN(C(=O)c1ccc(Cl)cc1)c1ccc(Sc2ccccc2)cc1`, the Reduction [6] was 65%, the LD50 [1] was > 1000 mg/kg and the Reduction [7] was 60%. It also gave a Reduction [8] of 48%.
`CN(C(=O)C1CN(c2ccccc2)C(=O)C1=O)c1ccc(Sc2ccccc2)cc1` (stereo unspecified) gave a Reduction [9] of 0%, a Reduction [10] of 5% and a Reduction [11] of 36%. For the same molecule, the LD50 [5] was > 1000 mg/kg.
`CC(C)N1CC(C(=O)N(C)c2ccc(Sc3ccccc3)cc2)C(=O)C1=O` (stereo unspecified) showed a Reduction [9] of 18%, a Reduction [10] of 26% and a Reduction [11] of 30%. For the same molecule, the LD50 [5] was > 1000 mg/kg.
`CCN(CC)CC(=O)Nc1ccc(Sc2ccccc2)cc1` showed an LD50 [1] of 45 mg/kg, a Reduction [12] of 22% and a Reduction [13] of 47%. It also gave a Reduction [14] of 30% and an LD50 [5] of 275 mg/kg.
`CN(C(=O)CN1CCCCC1)c1ccc(Sc2ccccc2)cc1` gave an LD50 [1] of 25 mg/kg, a Reduction [2] of 34% and a Reduction [3] of 29%. For the same molecule, the Reduction [4] was 40%.
With `CC(=O)Oc1ccccc1C(=O)N(C)c1ccc(Sc2ccccc2)cc1` the Reduction [6] was 59%, the LD50 [1] was 1000 mg/kg and the Reduction [7] was 55%. The Reduction [8] was 32%.
For `CN1CC(C(=O)N(C)c2ccc(Sc3ccccc3)cc2)C(=O)C1=O` (stereo unspecified), the LD50 [1] was > 1000 mg/kg, the Reduction [9] was 0% and the Reduction [10] was 0%. The Reduction [11] was 36%.
Molecule `CCN(CC)CC(=O)Nc1ccc(Sc2ccc(Cl)cc2)cc1` has an LD50 [1] of 45 mg/kg, a Reduction [12] of 72% and a Reduction [13] of 74%. For the same molecule, the Reduction [14] was 56% and the LD50 [5] was 275 mg/kg.
`CCN(CC)CC(=O)Nc1ccccc1Sc1ccc(Cl)cc1` showed an LD50 [1] of 55 mg/kg, a Reduction [15] of 63% and a Reduction [16] of 68%. For the same molecule, the LD50 [5] was 35 mg/kg and the Reduction [17] was 65%.
Molecule `CN(C)CC(=O)N(C)c1ccc(Sc2ccccc2)cc1` has an LD50 [1] of 50 mg/kg, a Reduction [2] of 22% and a Reduction [3] of 14%. For the same molecule, the Reduction [4] was 18%.
With `CCN(CC)CC(=O)N(C)c1ccc(Sc2ccc(Cl)cc2)cc1` the LD50 [1] was 45 mg/kg, the Reduction [18] was 13% and the Reduction [19] was 0%. It also gave an LD50 [5] of 175 mg/kg and a Reduction [20] of 15%.
For `CN(C(=O)CN1CCOCC1)c1ccc(Sc2ccccc2)cc1`, the LD50 [1] was 75 mg/kg, the Reduction [18] was 55% and the Reduction [19] was 43%. For the same molecule, the Reduction [20] was 45%.
With `CCOC(=O)C1=C(Nc2ccc(Sc3ccccc3)cc2)C(=O)N(C(C)C)C1` the Reduction [9] was 30%, the Reduction [10] was 30% and the Reduction [11] was 22%. The LD50 [5] was > 1000 mg/kg.
For `CN(C(=O)CN1CCCC1)c1ccc(Sc2ccccc2)cc1`, the LD50 [1] was 35 mg/kg, the Reduction [2] was 23% and the Reduction [3] was 18%. The Reduction [4] was 18%.
With `CN1CCN(CC(=O)N(C)c2ccc(Sc3ccccc3)cc2)CC1` the LD50 [1] was 75 mg/kg, the Reduction [18] was 45% and the Reduction [19] was 38%. For the same molecule, the Reduction [20] was 30%.
Work on `COc1ccc2c(c1)c(CC(=O)O)c(C)n2C(=O)c1ccc(Cl)cc1` [INDOMETHACIN] yielded a Reduction [18] of 61%, a Reduction [19] of 67% and a Reduction [20] of 65%.
